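Five compound concentrations were applied to cells in 96-well plates for 48 hours; endpoints were derived by simple linear interpolation of the resulting dose-response curve. Abbreviation: GI50, concentration required for 50% inhibition of growth.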 Active and inactive are the calls of the source. No stated cut-off is given here; in the data, active = GI50 up to about 1.1 µM and inactive = higher.
Tests used:
Experiment in all cases: DTP human tumour cell line panel, 48 h
A498 = tested on: A498
CCRF-CEM = tested on: CCRF-CEM
HCC 2998 = tested on: HCC 2998
HOP-62 = tested on: HOP-62
IGROV-1 = tested on: IGROV-1
LOX IMVI = tested on: LOX IMVI
M14 = tested on: M14
MDA-N = tested on: MDA-N
NCI-H23 = tested on: NCI-H23
NCI-H460 = tested on: NCI-H460
NCI/ADR-RES = tested on: NCI/ADR-RES
OVCAR-3 = tested on: OVCAR-3
SF-268 = tested on: SF-268
SK-MEL-28 = tested on: SK-MEL-28
SK-MEL-2 = tested on: SK-MEL-2
SK-MEL-5 = tested on: SK-MEL-5
SN12C = tested on: SN12C
T47D = tested on: T47D
HL-60 = tested on: HL-60
HOP-92 = tested on: HOP-92

| SMILES | GI50 (A498) | GI50 (CCRF-CEM) | GI50 (HCC 2998) | GI50 (HOP-62) | GI50 (IGROV-1) | GI50 (LOX IMVI) | GI50 (M14) | GI50 (MDA-N) | GI50 (NCI-H23) | GI50 (NCI-H460) | GI50 (NCI/ADR-RES) | GI50 (OVCAR-3) | GI50 (SF-268) | GI50 (SK-MEL-28) | GI50 (SK-MEL-2) | GI50 (SK-MEL-5) | GI50 (SN12C) | GI50 (T47D) | GI50 (HL-60) | GI50 (HOP-92) |
| --- | --- | --- | --- | --- | --- | --- | --- | --- | --- | --- | --- | --- | --- | --- | --- | --- | --- | --- | --- | --- |
| CC(=O)CN/C(C)=N/Nc1ccc([N+](=O)[O-])cc1[N+](=O)[O-] | 78.3 µM (inactive) | > 100 µM (inactive) | > 100 µM (inactive) | > 100 µM (inactive) | > 100 µM (inactive) | > 100 µM (inactive) | > 100 µM (inactive) | > 100 µM (inactive) | > 100 µM (inactive) | > 100 µM (inactive) | > 100 µM (inactive) | > 100 µM (inactive) | > 100 µM (inactive) | > 100 µM (inactive) | > 100 µM (inactive) | > 100 µM (inactive) | > 100 µM (inactive) | > 100 µM (inactive) |  |  |
| Nc1ccc(Nc2c3ccccc3nc3ccccc23)cc1 |  | 2.09 µM (inactive) | > 10 µM (inactive) | 4.32 µM (inactive) | 6.65 µM (inactive) | 1.06 µM (active) | 6.95 µM (inactive) | 5.12 µM (inactive) | 3.25 µM (inactive) | 0.565 µM (active) | 4.9 µM (inactive) | 3.89 µM (inactive) | > 10 µM (inactive) | > 10 µM (inactive) | 7.87 µM (inactive) | 3.86 µM (inactive) | 2.88 µM (inactive) | 6.49 µM (inactive) | 1.8 µM (inactive) |  |
| COc1cc2[nH]c(=O)[nH]c2c2c(C)c[nH]c12 | > 100 µM (inactive) | > 100 µM (inactive) | > 100 µM (inactive) | > 100 µM (inactive) | > 100 µM (inactive) | > 100 µM (inactive) | > 100 µM (inactive) | > 100 µM (inactive) | > 100 µM (inactive) | > 100 µM (inactive) | > 100 µM (inactive) | > 100 µM (inactive) | > 100 µM (inactive) | > 100 µM (inactive) | > 100 µM (inactive) | > 100 µM (inactive) | > 100 µM (inactive) | > 100 µM (inactive) | > 100 µM (inactive) |  |
| COc1ccc(Cn2nc(OCc3ccccc3)c3cc([N+](=O)[O-])ccc32)cc1 | > 100 µM (inactive) | > 100 µM (inactive) | 99.3 µM (inactive) | > 100 µM (inactive) | > 100 µM (inactive) | > 100 µM (inactive) | > 100 µM (inactive) | > 100 µM (inactive) | > 100 µM (inactive) | > 100 µM (inactive) | > 100 µM (inactive) | > 100 µM (inactive) | > 100 µM (inactive) | > 100 µM (inactive) | > 100 µM (inactive) | > 100 µM (inactive) | > 100 µM (inactive) | > 100 µM (inactive) | > 100 µM (inactive) |  |
| O=C(Sc1c(-c2ccccc2)c(=O)n(-c2ccccc2)c(=S)n1-c1ccccc1)c1cccs1 |  | 11.8 µM (inactive) |  | > 100 µM (inactive) | 49.7 µM (inactive) | 11.4 µM (inactive) | 53.6 µM (inactive) | 70 µM (inactive) | > 100 µM (inactive) | > 100 µM (inactive) | 50.8 µM (inactive) | > 100 µM (inactive) | > 100 µM (inactive) | > 100 µM (inactive) | 53 µM (inactive) | 19.2 µM (inactive) | 50.4 µM (inactive) | > 100 µM (inactive) | 76 µM (inactive) | 50 µM (inactive) |
| OCCN(/N=C\c1ccc2ccccc2c1)C1=NCCN1 |  | 27.6 µM (inactive) | 16.3 µM (inactive) | 42.6 µM (inactive) | 35.1 µM (inactive) | 16.3 µM (inactive) | 18.6 µM (inactive) | 17.2 µM (inactive) | 27.7 µM (inactive) | 29.4 µM (inactive) |  | 23.2 µM (inactive) | 35.1 µM (inactive) | 19.3 µM (inactive) | 20.3 µM (inactive) | 18.3 µM (inactive) | 25.3 µM (inactive) | 29.6 µM (inactive) | 19 µM (inactive) | 16 µM (inactive) |
| Cc1cc(C2(O)C=C(C(C)(C)C)C(=O)C(C(C)(C)C)=C2)c(C)cc1C1(O)C=C(C(C)(C)C)C(=O)C(C(C)(C)C)=C1 |  | > 100 µM (inactive) |  | > 100 µM (inactive) | > 100 µM (inactive) | > 100 µM (inactive) | > 100 µM (inactive) | > 100 µM (inactive) | > 100 µM (inactive) |  | > 100 µM (inactive) |  | > 100 µM (inactive) | > 100 µM (inactive) | > 100 µM (inactive) | > 100 µM (inactive) | > 100 µM (inactive) | > 100 µM (inactive) | > 100 µM (inactive) |  |
| CC(=O)O[C@H]1/C(=C/c2ccc(N(C)C)cc2)C[C@H]2[C@@H]3CC=C4C[C@@H](N5CCCC5)CC[C@]4(C)[C@H]3CC[C@]12C | > 100 µM (inactive) |  |  | > 100 µM (inactive) | > 100 µM (inactive) | 35.6 µM (inactive) | > 100 µM (inactive) |  | > 100 µM (inactive) | 61.9 µM (inactive) | > 100 µM (inactive) | > 100 µM (inactive) | > 100 µM (inactive) | > 100 µM (inactive) | > 100 µM (inactive) | > 100 µM (inactive) | > 100 µM (inactive) | 65.6 µM (inactive) | > 100 µM (inactive) | > 100 µM (inactive) |
| C/C1=C/C2OC(=O)C3(C)C2C(CC2(C)OC1=CC2=O)OC3(O)C(C)C (centres undefined) | 73.8 µM (inactive) | 23.6 µM (inactive) | 20.9 µM (inactive) | 41.6 µM (inactive) | 35.3 µM (inactive) | 31.4 µM (inactive) | 37 µM (inactive) | 53.7 µM (inactive) | 15 µM (inactive) | 42.5 µM (inactive) | 59 µM (inactive) | 31.2 µM (inactive) | 38.9 µM (inactive) | 40.5 µM (inactive) | 29.4 µM (inactive) | 23.6 µM (inactive) | 31.4 µM (inactive) | 58.2 µM (inactive) | 18.7 µM (inactive) |  |
| COc1cc([N+](=O)[O-])c(S(=O)(=O)[O-])cc1-[n+]1nc(C(=O)Nc2ccccc2)nn1-c1ccc([N+](=O)[O-])c(S(=O)(=O)O)c1 |  | > 100 µM (inactive) | > 100 µM (inactive) | > 100 µM (inactive) | > 100 µM (inactive) |  | > 100 µM (inactive) | > 100 µM (inactive) | > 100 µM (inactive) | > 100 µM (inactive) | > 100 µM (inactive) | > 100 µM (inactive) | > 100 µM (inactive) | > 100 µM (inactive) | > 100 µM (inactive) | > 100 µM (inactive) | > 100 µM (inactive) | > 100 µM (inactive) | 84.7 µM (inactive) |  |
| C[N+](C)(C)CCOP(=O)([O-])OCCNC(=O)c1ccc2ccccc2c1 |  | > 100 µM (inactive) | > 100 µM (inactive) | > 100 µM (inactive) | > 100 µM (inactive) | > 100 µM (inactive) | > 100 µM (inactive) | > 100 µM (inactive) | > 100 µM (inactive) |  | 31.5 µM (inactive) | > 100 µM (inactive) | > 100 µM (inactive) | > 100 µM (inactive) |  | > 100 µM (inactive) | > 100 µM (inactive) | > 100 µM (inactive) | > 100 µM (inactive) |  |

Source: ChEMBL document CHEMBL1201862, “PubChem BioAssay data set” (2004)
